biological target: T1, HDAC6 enzyme (Homo sapiens, UniProt Q9UBN7); assay: HDAC6 enzyme inhibitory assay (HDAC-Glo I/II Assay kit, luminescence); assay type: biochemical; settings: 10 μM test compound; wells without enzyme = 100% inhibition; 10 µM
T1 construct: prepared by transducing full length HDAC6 gene into Sf-9 insect cells; GST; purchased SignalChem; host or cells: Sf-9 insect cells
T1 sequence (Q9UBN7 1-1215): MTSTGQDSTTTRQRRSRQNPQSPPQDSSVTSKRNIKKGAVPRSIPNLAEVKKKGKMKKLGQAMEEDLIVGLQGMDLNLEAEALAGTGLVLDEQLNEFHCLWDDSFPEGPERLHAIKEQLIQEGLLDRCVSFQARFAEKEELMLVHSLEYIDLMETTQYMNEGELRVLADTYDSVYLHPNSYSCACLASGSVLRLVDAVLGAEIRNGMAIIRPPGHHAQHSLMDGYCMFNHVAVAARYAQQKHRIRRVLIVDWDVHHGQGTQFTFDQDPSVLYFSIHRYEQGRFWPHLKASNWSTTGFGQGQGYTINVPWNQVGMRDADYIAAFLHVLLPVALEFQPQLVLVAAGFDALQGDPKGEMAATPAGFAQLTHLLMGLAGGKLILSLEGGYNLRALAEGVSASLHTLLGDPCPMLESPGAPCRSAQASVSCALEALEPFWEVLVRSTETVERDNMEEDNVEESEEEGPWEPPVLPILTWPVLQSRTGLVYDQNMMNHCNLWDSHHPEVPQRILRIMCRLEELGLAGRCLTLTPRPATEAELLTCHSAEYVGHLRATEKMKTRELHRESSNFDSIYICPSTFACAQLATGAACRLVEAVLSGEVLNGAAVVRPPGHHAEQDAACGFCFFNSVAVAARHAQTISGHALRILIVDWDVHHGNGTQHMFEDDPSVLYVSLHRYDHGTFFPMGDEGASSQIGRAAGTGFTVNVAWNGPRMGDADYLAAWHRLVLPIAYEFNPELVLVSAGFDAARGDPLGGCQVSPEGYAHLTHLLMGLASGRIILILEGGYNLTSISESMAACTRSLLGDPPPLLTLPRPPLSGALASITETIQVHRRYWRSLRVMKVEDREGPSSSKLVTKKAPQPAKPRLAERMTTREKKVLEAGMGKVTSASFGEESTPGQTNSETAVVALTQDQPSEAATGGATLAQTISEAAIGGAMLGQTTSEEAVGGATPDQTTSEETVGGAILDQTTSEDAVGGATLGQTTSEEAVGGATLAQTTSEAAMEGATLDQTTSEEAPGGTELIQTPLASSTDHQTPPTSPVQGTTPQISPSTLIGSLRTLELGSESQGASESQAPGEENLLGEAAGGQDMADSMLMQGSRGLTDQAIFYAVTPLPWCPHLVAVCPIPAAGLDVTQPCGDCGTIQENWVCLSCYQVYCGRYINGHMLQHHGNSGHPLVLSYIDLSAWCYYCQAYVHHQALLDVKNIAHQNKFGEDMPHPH
Method in brief: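 Full-length human HDAC6, GST-purified from Sf-9 cells, was preincubated with compound for 60 min at room temperature in Tris-HCl pH 7.5 buffer with glutathione and Tween-20. Substrate-developer was then added, and luminescence was read after 20 min at room temperature. Inhibition was expressed relative to no-enzyme wells, taken as 100% inhibition.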

HDAC6 inhibitory rate (%) (10 μM)	Compound
58	CN1C(=O)c2cc(-c3nnc(C(F)F)o3)ccc2CC1(C)c1ccc(F)cc1 (single isomer, unassigned; isomer 1) [Example 23b, 7-[5-(difluoromethyl)-1,3,4-oxadiazol-2-yl]-3-(4-fluorophenyl)-2,3-dimethyl-3,4-dihydroisoquinolin-1(2H)-one (optical isomer 1)]

same assay, conditions: 10 μM test compound; wells without enzyme = 100% inhibition; read-out: HDAC6 inhibitory rate (%) (10 μM)

Compound	inhibition at 10 µM [%]
CN(CCOCc1ccccc1)N1Cc2ccc(-c3nnc(C(F)F)o3)cc2C1=O [Example 48c, 2-{[2-(benzyloxy)ethyl](methyl)amino}-6-[5-(difluoromethyl)-1,3,4-oxadiazol-2-yl]-2,3-dihydro-1H-isoindol-1-one]	99
COCC1(c2ccccc2)Oc2ccc(-c3nnc(C(F)F)o3)cc2C(=O)N1C (stereo not shown) [Example 51b, 6-[5-(difluoromethyl)-1,3,4-oxadiazol-2-yl]-2-(methoxymethyl)-3-methyl-2-phenyl-2,3-dihydro-4H-1,3-benzoxazin-4-one]	99
Cn1cc(Cn2ccnc2-c2cc(F)cc(-c3nnc(C(F)F)o3)c2)cn1 [Example 59a, 2-(difluoromethyl)-5-(3-fluoro-5-{1-[(1-methyl-1H-pyrazol-4-yl)methyl]-1H-imidazol-2-yl}phenyl)-1,3,4-oxadiazole]	99
N#Cc1ccnc(Cn2ccnc2-c2cc(-c3nnc(C(F)F)o3)ccn2)c1 [Example 95a, 2-[(2-{4-[5-(difluoromethyl)-1,3,4-oxadiazol-2-yl]pyridin-2-yl}-1H-imidazol-1-yl)methyl]pyridine-4-carbonitrile]	100
COCCOc1ccc(CN(C)N2Cc3ccc(-c4nnc(C(F)F)o4)cc3C2=O)cc1 [Example 55c, 6-[5-(difluoromethyl)-1,3,4-oxadiazol-2-yl]-2-[{[4-(2-methoxyethoxy)phenyl]methyl} (methyl)amino]-2,3-dihydro-1H-isoindol-1-one]	101
Cc1nn(C)cc1Cn1ccnc1-c1cc(F)cc(-c2nnc(C(F)F)o2)c1 [Example 63a, 2-(difluoromethyl)-5-(3-{1-[(1,3-dimethyl-1H-pyrazol-4-yl)methyl]-1H-imidazol-2-yl}-5-fluorophenyl)-1,3,4-oxadiazole]	97
CCOC(=O)CN(C)N1Cc2ccc(-c3nnc(C(F)F)o3)cc2C1=O [Example 46c, ethyl N-{6-[5-(difluoromethyl)-1,3,4-oxadiazol-2-yl]-1-oxo-1,3-dihydro-2H-isoindol-2-yl}-N-methylglycinate]	99
Fc1cccc(Cc2cncnc2-c2cc(-c3nnc(C(F)F)o3)ccn2)c1 [Example 90a, 4-{4-[5-(difluoromethyl)-1,3,4-oxadiazol-2-yl]pyridin-2-yl}-5-[(3-fluorophenyl)methyl]pyrimidine]	98
Cc1cc(COc2cccnc2-c2cc(F)cc(-c3nnc(C(F)F)o3)c2)nn1C [Example 10a, 2-(3-[5-(difluoromethyl)-1,3,4-oxadiazol-2-yl]-5-fluorophenyl}-3-[(1,5-dimethyl-1H-pyrazol-3-yl)methoxy]pyridine]	96
Fc1cc(-c2nnc(C(F)F)o2)cc(-c2nccn2Cc2ccncc2)c1 [Example 24a, 4-[(2-{3-[5-(difluoromethyl)-1,3,4-oxadiazol-2-yl]-5-fluorophenyl}-1H-imidazol-1-yl)methyl]pyridine]	98
CN(Cc1ccnc(F)c1)N1Cc2ccc(-c3nnc(C(F)F)o3)cc2C1=O [Example 51c, 6-[5-(difluoromethyl)-1,3,4-oxadiazol-2-yl]-2-{[(2-fluoropyridin-4-yl)methyl](methyl)amino}-2,3-dihydro-1H-isoindol-1-one]	100
O=C1c2cc(-c3nnc(C(F)F)o3)ccc2CN1NCC1CCOCC1 [Example 17c, 6-[5-(difluoromethyl)-1,3,4-oxadiazol-2-yl]-2-{[(oxan-4-yl)methyl]amino}-2,3-dihydro-1H-isoindol-1-one]	98
O=C1c2cc(-c3nnc(C(F)F)o3)ccc2OCN1Cc1ccccc1 [Example 5b, 3-benzyl-6-[5-(difluoromethyl)-1,3,4-oxadiazol-2-yl]-2,3-dihydro-4H-1,3-benzoxazin-4-one]	71
Fc1ccc(Cn2ccnc2-c2cc(F)cc(-c3nnc(C(F)F)o3)c2)cc1 [Example 46a, 2-(difluoromethyl)-5-(3-fluoro-5-{1-[(4-fluorophenyl)methyl]-1H-imidazol-2-yl}phenyl)-1,3,4-oxadiazole]	99
CCN(Cc1ccccc1)N1Cc2ccc(-c3nnc(C(F)F)o3)cc2C1=O [Example 8c, 2-[benzyl (ethyl)amino]-6-[5-(difluoromethyl)-1,3,4-oxadiazol-2-yl]-2,3-dihydro-1H-isoindol-1-one]	95
Fc1cc(-c2nnc(C(F)F)o2)cc(-c2nccn2Cc2cccc(C(F)(F)F)c2)c1 [Example 67a]	99

Results, then the molecule that gave them:

inhibition at 10 µM [%]	Compound
99	O=C1c2cc(-c3nnc(C(F)F)o3)ccc2CN1NCc1ccc(F)cc1 [Example 6c, 6-[5-(difluoromethyl)-1,3,4-oxadiazol-2-yl]-2-{[(4-fluorophenyl)methyl]amino}-2,3-dihydro-1H-isoindol-1-one]
101	CC1(c2ccc(F)cc2)Oc2ccc(-c3nnc(C(F)F)o3)cc2C(=O)N1CC1CC1 (stereo not shown) [Example 47b, 3-(cyclopropylmethyl)-6-[5-(difluoromethyl)-1,3,4-oxadiazol-2-yl]-2-(4-fluorophenyl)-2-methyl-2,3-dihydro-4H-1,3-benzoxazin-4-one]
99	COc1ccc(C2(C)Oc3ccc(-c4nnc(C(F)F)o4)cc3C(=O)N2C)cc1 (stereo not shown) [Example 18b, 6-[5-(difluoromethyl)-1,3,4-oxadiazol-2-yl]-2-(4-methoxyphenyl)-2,3-dimethyl-2,3-dihydro-4H-1,3-benzoxazin-4-one]
98	CN1C(=O)c2cc(-c3nnc(C(F)F)o3)cnc2C[C@]1(C)c1cccc(F)c1 [Example 53b, (7R)-3-[5-(difluoromethyl)-1,3,4-oxadiazol-2-yl]-7-(3-fluorophenyl)-6,7-dimethyl-7,8-dihydro-1,6-naphthyridin-5(6H)-one]
100	CN1C(=O)c2cc(-c3nnc(C(F)F)o3)ccc2OC1(C)c1ccc(F)c(F)c1 (stereo not shown) [Example 32b, 6-[5-(difluoromethyl)-1,3,4-oxadiazol-2-yl]-2-(3,4-difluorophenyl)-2,3-dimethyl-2,3-dihydro-4H-1,3-benzoxazin-4-one]
101	CN1C(=O)c2cc(-c3nnc(C(F)F)o3)ccc2C[C@]1(C)c1ccc(F)c(F)c1 [Example 50b, (3R)-7-[5-(difluoromethyl)-1,3,4-oxadiazol-2-yl]-3-(3,4-difluorophenyl)-2,3-dimethyl-3,4-dihydroisoquinolin-1(2H)-one]
100	O=C1NN(c2ccc(F)c(F)c2)Cc2ccc(-c3nnc(C(F)F)o3)cc21 [Example 30b, 7-[5-(difluoromethyl)-1,3,4-oxadiazol-2-yl]-3-(3,4-difluorophenyl)-3,4-dihydrophthalazin-1(2H)-one]
100	O=C1NN(c2ccc(F)c(Cl)c2)Cc2ccc(-c3nnc(C(F)F)o3)cc21 [Example 31b, 3-(3-chloro-4-fluorophenyl)-7-[5-(difluoromethyl)-1,3,4-oxadiazol-2-yl]-3,4-dihydrophthalazin-1(2H)-one]

Source: US12084436B2, “Heterocyclic compound” (Takeda Pharmaceutical Company Limited, priority 2019, dated 2024)
